Entries after “also recorded” stand apart in the source; their conditions may differ.
Tested on: human iPSC lines
Experiment: Cell painting assay (image-based cell phenotyping) on a panel of human iPSC lines from different donors
Settings: 24 hrs; for Uniformity or variation of response between human iPSC lines in UMAP embedding: panel of human iPSC lines from different donors, concentration of Table 2 (5 μM; fenbendazole 3.34 μM); for UMAP embedding of cell painting features: cluster: panel of HipSci human iPSC lines, clusters: 1 DMSO and weak responders, 2 Atorvastatin, Simvastatin, Fluphenazine, 3 Afatinib, Erlotinib, Everolimus and Rapamycin, 4 DNA damaging agents and topoisomerase inhibitors, 5 non-microtubule targeting cytotoxics, 6 Microtubule polymerization effectors; for Response to drug in UMAP embedding, cell lines paim3 and pelm1: paim3 and pelm1 lines (FIG. 7 legend prints pelm3); for Changes of features in the cell nucleus across cell lines: etoposide 1.7 μM, irinotecan 5 μM, nuclear painting probes
Experimental: 384-well tissue culture plates (CellCarrier-384 Ultra Microplates, Perkin Elmer 6057300) were coated with human plasma fibronectin (Merck Millipore FC010) at a concentration of 5 μg/cm^2. Cells were passaged as described above with TrypLE Select, counted and seeded on the fibronectin coated wells at a concentration of 3×10^4/cm^2. Cell line plating was in rows, with three wells per condition for each cell line. Cells were incubated for 24 hrs prior to drug treatment, followed by a further 24 hrs incubation before final fixation and staining and high content imaging. Antibody staining of a separate 384-well plate at 48 hrs confirmed that pluripotency was maintained at 48 hrs.
All fixation, permeabilisation and immunostaining were performed at room temperature. Paraformaldehyde 8% in PBS (PFA, Sigma F8775) was added to an equal volume of medium for a final concentration of 4% and incubated for 15 min. Fixed cells were washed in PBS and permeabilised with 0.1% v/v Triton-X100 (Sigma) for 15 min. Following permeabilisation, cells were washed in TBS and stained with DAPI (Thermo Fisher D1306), SYTO 14 (Thermo Fisher S7576), Concanavalin A (Thermo Fisher C11252), Phalloidin Alexa (Thermo Fisher A12381), and WGA (Thermo Fisher W11262) for 1 hr. Mitotracker (Thermo Fisher M22426) staining was performed in live cells with a 30 min incubation at 37° C. prior to fixation. Cell fixation, permeabilisation, staining and washing steps were performed using automated liquid handling systems (405 plate washer, BioTek—Tempest, Formulatrix).
Drug dosing on 384-well plates was performed using an Echo acoustic liquid handler and corresponding software (Labcyte). Screened compounds were selected from the appropriate chemical library plates containing Cloud library (Enamine) and NPSC Control library. For etoposide drug dosing was performed at 1.7 μM. […]
All imaging data were collected on an InCell 2200 high content imager, with a 20× lens and a Quad2 multichroic mirror (GE, Issaquah, WA).
Raw images were imported into OMERO Plus (Glencoe Software, Inc., (9)) and then processed using a custom pipeline in CellProfiler (8) which segmented nuclei, cytoplasm, golgi and cortical protrusions and calculated a range of defined features. All further steps were executed using the Pandas Python library (10). Features for each plate were normalised by the median of features in DMSO control for that plate. Features whose coefficient of variation was greater than 0.50 were removed from further analysis (typically these were Zernike Phase features). We further removed all features with |Spearman coefficient|>0.98. Z-normalised data were then visualised using principal component analysis (PCA) and Uniform Manifold Approximation and Projection (UMAP (11)). For PCA, we calculated the first 15 principal components and variance included in the first two principal components was 77.1%. UMAP parameters were n_neighbours=15, mindist=0.01 and a cosine metric for scaling distance between points. GO enrichment analysis was carried out using WebGestalt (WEB-based Gene SeT AnaLysis Toolkit) (12)
We next used a selection of human iPSCs from the HipSci cohort to test our ability to detect differential effects of FDA-approved drugs, using an image-based cell phenotyping assay. All selected human iPSC lines were previously subjected to whole genome sequencing (https://www.hipsci.org) and the genome data are publicly available. Cells from selected human iPSC lines (Table 1), were grown in 384 well plates, treated with selected compounds (drugs and concentrations used are shown in Table 2), for 24 hrs, then fixed and stained with cell painting markers (see Materials and Methods). Images were recorded in an automated, plate-based imager, then imported into OMERO (9). Images were segmented with respect to the features, ‘nuclei’, ‘cytoplasm’, ‘Golgi’ and ‘protrusions’, using a custom CellProfiler pipeline (13) and image features were then calculated (˜300 features per cell compartment). […]

## O=c1[nH]cc(F)c(=O)[nH]1 [5-FU]
  Uniformity or variation of response between human iPSC lines in UMAP embedding: Most cells responded to 5-FU (cluster 1, red, FIG. 3A), but several showed a response indistinguishable from DMSO

## CC(C)c1c(C(=O)Nc2ccccc2)c(-c2ccccc2)c(-c2ccc(F)cc2)n1CC[C@@H](O)C[C@@H](O)CC(=O)O [Atorvastatin]
All cell lines, before Z normalization, 5 μM, FIG. 5A
  Magnitude of response: heatmap of deviations of all features from DMSO: the magnitude of the responses differ between the different cell lines
5 μM
  UMAP embedding of cell painting features: cluster: cluster 2
  Uniformity or variation of response between human iPSC lines in UMAP embedding: tight clustering in UMAP embedding

## C#Cc1cccc(Nc2ncnc3cc(OCCOC)c(OCCOC)cc23)c1 [Erlotinib]
Human iPSC lines other than paim3 and pelm1, 5 μM
  Response to drug in UMAP embedding, all other / majority of human iPSC lines: resembles rapamycin and everolimus; also recorded: clustered with rapamycin and everolimus
5 μM
  Response to drug in UMAP embedding, cell lines paim3 and pelm1: afatinib cluster
5 μM, listed as erlotinib
  Response to drug in UMAP embedding, cell lines paim3 and pelm1: clustered with afatinib
  Uniformity or variation of response between human iPSC lines in UMAP embedding: differential response of some lines
voce2 line (along with the majority of hiPSCs), 5 μM, FIG. 7
  Response to drug in UMAP embedding, cell line voce2: Erlotinib cluster
zaie1 line, 5 μM, FIG. 7
  Response to drug in UMAP embedding, cell line zaie1: weak responders group

## COc1cc([C@@H]2c3cc4c(cc3[C@@H](O[C@@H]3O[C@@H]5CO[C@@H](C)O[C@H]5[C@H](O)[C@H]3O)[C@H]3COC(=O)[C@H]23)OCO4)cc(OC)c1O [Etoposide]
  Changes of features in the cell nucleus across cell lines: cause similar changes in multiple cell lines

## CO[C@H]1C[C@@H]2CC[C@@H](C)[C@@](O)(O2)C(=O)C(=O)N2CCCC[C@H]2C(=O)O[C@H]([C@H](C)C[C@@H]2CC[C@@H](OCCO)[C@H](OC)C2)CC(=O)[C@H](C)/C=C(\C)[C@@H](O)[C@@H](OC)C(=O)[C@H](C)C[C@H](C)/C=C/C=C/C=C/1C [Everolimus]
5 μM
  UMAP embedding of cell painting features: cluster: cluster 3

## COC(=O)Nc1nc2ccc(Sc3ccccc3)cc2[nH]1 [Fenbendazole]
  Uniformity or variation of response between human iPSC lines in UMAP embedding: splitting of clusters

## CCc1c2c(nc3ccc(OC(=O)N4CCC(N5CCCCC5)CC4)cc13)-c1cc3c(c(=O)n1C2)COC(=O)[C@]3(O)CC [Irinotecan]
  Changes of features in the cell nucleus across cell lines: cause similar changes in multiple cell lines

## O=C(CCCCCCC(=O)Nc1ccccc1)NO [Vorinostat]
  Uniformity or variation of response between human iPSC lines in UMAP embedding: splitting of clusters
